Reference: patent publication US20220160712A1, “METHODS OF TREATING RHEUMATOID ARTHRITIS AND FOR PREDICTING THE RESPONSE TO METHOTREXATE” (CHAN ZUCKERBERG BIOHUB, INC., priority 2020, published 2022)

Legend:
Clostridium sporogenes = assay: RNA-seq after MTX treatment; type: cell-based; conditions: MTX 100 μg/ml, 30 minutes; padj<0.2, DESeq
Method: Genomes were obtained from NCBI's GenBank Assembly database. Culture media was composed of BHI+and allowed to equilibrate in an anaerobic environment prior to use. Briefly, bacteria were cultured in BHI+at 37° C. in an anaerobic chamber. Cultures for each isolate were grown to mid-exponential (achieving an OD600˜0.5), aliquoted into triplicates, treated for 30 minutes with either DMSO or MTX 100 μg/ml, and then removed from the anaerobic chamber. […]
Total RNA was subjected to rRNA depletion using Ribo-Zero Bacterial rRNA Depletion (Illumina, catalog #: MRZB12424), following the manufacturer's protocol. […] For each sample, fastq files are available in NCBI's Sequence Read Archive (SRA), accession number PRJNA656577.
Reads were trimmed using Trimmomatic (v0.32) (Bolger, A. M., et al., (2014), Bioinformatics 30, 2114-2120), and ribosomal reads were removed using SortMeRNA (v2.1) (Kopylova, E., et al., (2012), Bioinformatics 28, 3211-3217). Reads were mapped to reference genomes using Bowtie2 (Langmead, B., and Salzberg, S. L. (2012), Nat Methods 9, 357-359) using the following options: -q, —met file, —end-to-end, —sensitive. […]

human gut microbiota = assay: MTX treatment of gnotobiotic mice colonized with human stool; 16S-seq and qPCR of gut microbiota; type: in vivo; conditions: for gut microbial community structure, ANOSIM R: p=0.006; for shift in gut microbiota, ANOSIM R: Day 0 vs. 2
[1] = Donor 2, individually housed mice, MTX 50 mg/kg
[2] = combined gnotobiotic experiments, multi-factor design, padj<0.05, DESeq

Which results are given for `CN(Cc1cnc2nc(N)nc(N)c2n1)c1ccc(C(=O)N[C@@H](CCC(=O)O)C(=O)O)cc1` [MTX, methotrexate]?
number of differentially expressed genes (Clostridium sporogenes): 21 genes; Total colonization (16S copy number per gram stool) (human gut microbiota; Donor 1 (healthy) humanized mice, oral vehicle, 1 mg/kg or 50 mg/kg MTX, 4 days): comparable between groups; microbial richness (number of ASVs) (human gut microbiota; Donor 1 humanized mice, oral vehicle, 1 mg/kg or 50 mg/kg MTX, 4 days): comparable between groups; number of low-dose ASVs also altered in a consistent direction in the high-dose group (human gut microbiota; Donor 1 mice, 1 mg/kg and 50 mg/kg): 19; gut microbial community structure, ANOSIM R (human gut microbiota; Donor 1 mice, after 1 day of treatment): 0.60; gut microbial community structure, ANOSIM R (human gut microbiota; Donor 1 mice, final day of treatment): 0.75; number of bacterial genera altered (human gut microbiota; Donor 1 mice, high-dose MTX 50 mg/kg): 14; Bacteroidetes phylum compared to vehicle controls (human gut microbiota; Donor 1 mice, high-dose MTX 50 mg/kg oral, Day 4 DESeq padj=0.001): significantly decreased; number of amplicon sequence variants (ASVs) altered (human gut microbiota; Donor 1 mice, high-dose MTX 50 mg/kg, DESeq padj<0.01, Day 4): 81; number of ASVs significantly altered (human gut microbiota; Donor 1 mice, low-dose MTX 1 mg/kg): 26; Bacteroidetes longitudinal trend, slope (generalized linear mixed-effects model) (human gut microbiota; Donor 1 mice, p=0.007): −0.066; Microbial richness (human gut microbiota; Donor 2 (treatment naive RA patient), individually housed mice, MTX 50 mg/kg, p=0.4): comparable between groups; number of ASVs with changed abundance (human gut microbiota; [1]): 23; number of genera with changed abundance (human gut microbiota; [1]): 8; phylum level changes (human gut microbiota; [1]): No phylum level changes were detected; ASV23 (Bacteroides faecichinchillae/faecis/finegoldii/thetaiotaomicron) abundance (human gut microbiota; Donor 2, individually housed mice, high-dose MTX (FIG. 7B)): reduced; ASV296 (Lachnoclostridium) abundance (human gut microbiota; Donor 2, individually housed mice, high-dose MTX (FIG. 7C)): reduced; Dielma fastidiosa (ASV72) abundance (human gut microbiota; Donor 2, individually housed mice, high-dose MTX (FIG. 7D)): decreased; ASV908 (Paraprevotella) abundance (human gut microbiota; Donor 2, individually housed mice, high-dose MTX (FIG. 7E)): increased; number of ASVs with consistent shifts overlapping between route and rescue (human gut microbiota; Donor 3 mice, MTX 50 mg/kg): 41; shift in gut microbiota, ANOSIM R (human gut microbiota; Donor 3 mice, rescue experiment (oral MTX with or without folic acid), p=0.002): 0.99; shift in gut microbiota, ANOSIM R (human gut microbiota; Donor 3 mice, route experiment (oral or IP MTX 50 mg/kg), p=0.007): 0.89; number of ASVs differentially abundant (human gut microbiota; [2]): 61; number of genera differentially abundant (human gut microbiota; [2]): 31; number of phyla differentially abundant (human gut microbiota; [2]): Four; a-diversity (human gut microbiota; combined gnotobiotic experiments, p>0.05, ANOVA): not affected
